In patent US9926293B2, “Multivalent RAS binding compounds” (THE TRUSTEES OF COLUMBIA UNIVERSITY IN THE CITY OF NEW YORK, priority 2014, dated 2018):

Tested on: HT-1080 cells (NRAS^Q61K) transfected
Assay: Sensitivity of HT-1080 cells overexpressing KRAS^G12V, PI3K^E545K, BRAF^V600E
Type: cell-based
Conditions: BRAF^V600E or both, 5 μM, 24 h
Experimental: RAS, PI3K and BRAF Overexpression.
Phoenix-AMPHO (ATCC: CRL-3213) cells were seeded in a 6-well plate at 600,000 cells/well 24 hours prior to use in 10% FBS and 1% PS in DMEM. A solution of lipofectamine 2000 (6 μL) in 100 μL opti-mem media (reduced serum media) and the plasmid (2.5 μg) in 100 μL opti-mem media were combined and incubated 5 minutes at 25° C., then added to 1.8 mL of opti-mem in each well. After 12 hours, the media was replaced with 10% FBS and 1% PS in DMEM. The next day the supernatant was collected three times spaced 4 hours apart and polybrene was added ( 1/1000). The supernatant was filtered (0.45 μm) and added to HT1080 cells seeded at 100,000 cells per well (6-well dish) in 2 mL portions spaced 4 hours apart. After 48 hours, the cells were trypsinized and re-seeded in medium containing puromycin (2 μg/mL). After 6 days of selection the cells were analyzed for expression using the aforementioned qPCR procedure. 2 mL solutions of the inhibitors were added to a 6-well plate of the transfected HT-1080 cells (100,000 cells/well) and treated for 24 hours. The cells were then trypsinized, re-suspended in 1 mL of medium and viability was measured by VI-CELL (Beckman Coulter) through mixing with trypan blue.

NC1(C(=O)NCCCn2cc(-c3ccc(OC(F)(F)F)cc3)c3cc(CN4CCN(Cc5c(Cl)cccc5Cl)CC4)ccc32)CCNCC1 [Compound 31MEW44, 4-amino-N-(3-(5-((4-(2,6-dichlorobenzyl)piperazin-1-yl)methyl)-3-(4-(trifluoromethoxy)phenyl)-1H-indol-1-yl)propyl)piperidine-4-carboxamide]
resistance on overexpression: resistance was indeed observed in all cases
